Assay results from article PMC4648258 (ACS infectious diseases, 2015).
In brackets after ≈: the same amount, converted by molar mass.

Legend:
M. tuberculosis [1] = format: cell-based
[2] = system: Staphylococcus aureus strains (FDA209P, ATCC6538P, KB199); details: three Staphylococcus aureus strains (FDA209P, ATCC6538P, KB199); cited from earlier work
[3] = system: VRE (Vancomycin-resistant E. faecium); assay: MIC, Gram-positive panel; format: cell-based
B. anthracis = format: cell-based
E. faecium = assay: MIC, Gram-positive panel; format: cell-based
M. marinum = assay: broth microdilution, A570 readout, non-tuberculosis mycobacteria; format: cell-based
P. aeruginosa = assay: MIC, Gram-negative panel; format: cell-based
Micrococcus luteus = details: cited from earlier work
K. pneumoniae = assay: MIC, Gram-negative panel; format: cell-based
[4] = system: nonreplicating M. tuberculosis H37Rv; format: cell-based, Mycobacterium tuberculosis
M. avium = assay: broth microdilution, A570 readout, non-tuberculosis mycobacteria; format: cell-based
E. faecalis = assay: MIC, Gram-positive panel; format: cell-based
E. coli = assay: MIC, Gram-negative panel; format: cell-based
MtThyX = MtThyX (Mycobacterium tuberculosis, UniProt P9WG57); assay: cell-free ThyA and ThyX enzyme inhibition assay; format: biochemical, M. tuberculosis
solubility = format: physicochemical; details: current study
[5] = in vivo tolerance assessment, oral gavage; design: species or system female BALB/c mice; details: 100 mg/kg daily by oral gavage for 5 days, uninfected mice
[6] = system: Streptococcus faecium IFO3181; details: cited from earlier work
[7] = target: M. tuberculosis ThyA (MtThyA) (Mycobacterium tuberculosis, UniProt P9WFR9); assay: cell-free ThyA and ThyX enzyme inhibition assay; format: biochemical
[8] = liver microsome stability; format: in vitro ADME; details: 1 μM, 30 min, 0.5 mg/mL mouse liver microsomes
S. pyogenes = assay: MIC, Gram-positive panel; format: cell-based
M. kansasii = assay: broth microdilution, A570 readout, non-tuberculosis mycobacteria; format: cell-based
[9] = 100 mg/kg intraperitoneally; deposited solid residues; cited from earlier work
[10] = previous study ref 18; cited from earlier work
[11] = target: thymidylate synthase (E. faecium); details: competitive with coenzyme 5,10-methylenetetrahydrofolate; cited from earlier work
S. pneumoniae = assay: MIC, Gram-positive panel; format: cell-based
M. tuberculosis [12] = assay: LORA MBC99, hypoxic; format: cell-based, Mycobacterium tuberculosis; details: hypoxic conditions (LORA)
E. cloacae = assay: MIC, Gram-negative panel; format: cell-based
M. bovis BCG = format: cell-based
Caco-2 = Caco-2 bidirectional permeability; format: in vitro ADME; details: Caco-2, 5 μM
human ThyA (HsThyA) = human ThyA (HsThyA) (Homo sapiens, UniProt P04818); assay: cell-free ThyA and ThyX enzyme inhibition assay; format: biochemical; details: purified HsThyA, inhibitor 13 μM, compared to positive control 1843U89
[13] = liver microsome stability; format: in vitro ADME; details: 1 μM, 30 min, 0.5 mg/mL human liver microsomes
B. subtilis = assay: MIC, Gram-positive panel; format: cell-based
M. chelonae = assay: broth microdilution, A570 readout, non-tuberculosis mycobacteria; format: cell-based
A. baumannii = assay: MIC, Gram-negative panel; format: cell-based
B. thuringiensis = assay: MIC, Gram-positive panel; format: cell-based
B. cereus 14579 = assay: MIC, Gram-positive panel; format: cell-based
M. smegmatis = assay: broth microdilution, A570 readout, non-tuberculosis mycobacteria; format: cell-based
M. abscessus = assay: as above; format: cell-based
B. cereus 10987 = assay: MIC, Gram-positive panel; format: cell-based
P. mirabilis = assay: MIC, Gram-negative panel; format: cell-based
M. tuberculosis H37Rv = assay: microplate Alamar Blue assay; format: cell-based; details: Mycobacterium tuberculosis

Chain of MtThyX (P9WG57 whole entry): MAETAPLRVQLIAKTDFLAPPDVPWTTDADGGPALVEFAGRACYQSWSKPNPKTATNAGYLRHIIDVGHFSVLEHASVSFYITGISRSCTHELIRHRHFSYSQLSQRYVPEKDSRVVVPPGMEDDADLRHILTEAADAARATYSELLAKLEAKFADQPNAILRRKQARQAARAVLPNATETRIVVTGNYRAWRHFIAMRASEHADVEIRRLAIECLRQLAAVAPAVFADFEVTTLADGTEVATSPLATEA
Chain of M. tuberculosis ThyA (MtThyA) (P9WFR9 whole entry): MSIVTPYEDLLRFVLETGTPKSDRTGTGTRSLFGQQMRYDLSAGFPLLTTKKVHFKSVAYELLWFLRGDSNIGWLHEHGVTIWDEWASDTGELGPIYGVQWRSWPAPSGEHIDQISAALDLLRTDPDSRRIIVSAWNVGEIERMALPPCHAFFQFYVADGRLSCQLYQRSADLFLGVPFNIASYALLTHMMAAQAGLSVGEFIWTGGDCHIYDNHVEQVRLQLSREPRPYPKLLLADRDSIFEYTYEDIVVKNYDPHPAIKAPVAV
Chain of human ThyA (HsThyA) (P04818 whole entry): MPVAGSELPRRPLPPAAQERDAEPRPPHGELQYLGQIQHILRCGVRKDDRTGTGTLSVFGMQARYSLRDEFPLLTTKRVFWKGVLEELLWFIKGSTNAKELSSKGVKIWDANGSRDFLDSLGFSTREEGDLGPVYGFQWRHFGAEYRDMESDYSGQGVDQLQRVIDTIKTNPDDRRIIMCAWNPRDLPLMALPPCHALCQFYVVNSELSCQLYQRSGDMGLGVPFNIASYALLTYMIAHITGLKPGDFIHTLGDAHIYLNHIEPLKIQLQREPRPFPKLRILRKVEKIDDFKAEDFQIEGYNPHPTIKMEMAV

## CCCc1c2c([nH]c(=O)c1C)C(=O)c1[nH]c(=O)c(C)c(CCC)c1C2=O [Compound 3, diazaquinomycin A]
M. tuberculosis [1]
  reversal of antibiotic properties by thymidine: no reversal
[2]
  MIC: 6.25 µg/mL (≈ 17.6 µM)
[3]
  MIC: 32 µg/mL (≈ 90.3 µM)
B. anthracis
  MIC: 6.25 µg/mL (≈ 17.6 µM)
E. faecium
  MIC: 8 µg/mL (≈ 22.6 µM)
M. marinum
  MIC: >7.5 µg/mL
P. aeruginosa
  MIC: 128 µg/mL (≈ 361 µM)
Micrococcus luteus
  MIC: 1.13 µg/mL (≈ 3.19 µM)
K. pneumoniae
  MIC: 128 µg/mL (≈ 361 µM)
[4]
  MIC: 0.72 µg/mL (≈ 2.03 µM)
M. avium
  MIC: 3.85 µg/mL (≈ 10.9 µM)
E. faecalis
  MIC: 8 µg/mL (≈ 22.6 µM)
E. coli
  MIC: 128 µg/mL (≈ 361 µM)
MtThyX
  inhibition of enzyme activity: did not significantly inhibit
solubility
  maximum room temperature concentration in DMSO: 600 µg/mL
[5]
  tolerance in vivo: well tolerated
[6]
  MIC: 6.25 µg/mL (≈ 17.6 µM)
[7]
  inhibition of enzyme activity: did not significantly inhibit
[8]
  parent compound remaining: 98%
S. pyogenes
  MIC: >25 µg/mL
M. kansasii
  MIC: >7.5 µg/mL
[9]
  toxicity in vivo: acute toxicity
[10]
  maximum room temperature concentration in water: 0.15 µg/mL
[11]
  Ki: 36 µM
S. pneumoniae
  MIC: >10 µg/mL
M. tuberculosis [12]
  MBC99: did not exhibit a significant MBC99
E. cloacae
  MIC: 64 µg/mL (≈ 181 µM)
M. bovis BCG
  MIC: 0.12 µg/mL (≈ 0.339 µM)
Caco-2
  efflux ratio: 0.2
  permeability (from apical to basolateral): 4.4 ×10⁻⁶ cm/s
  permeability (from basolateral to apical): 0.9 ×10⁻⁶ cm/s
  recovery (from apical to basolateral): 82%
  recovery (from basolateral to apical): 98%
Human ThyA (HsThyA)
  inhibition of enzyme activity: did not significantly inhibit
[13]
  parent compound remaining: 96%
B. subtilis
  MIC: 100 µg/mL (≈ 282 µM)
M. chelonae
  MIC: >7.5 µg/mL
A. baumannii
  MIC: 128 µg/mL (≈ 361 µM)
B. thuringiensis
  MIC: 25 µg/mL (≈ 70.5 µM)
B. cereus 14579
  MIC: 25 µg/mL (≈ 70.5 µM)
M. smegmatis
  MIC: 4.56 µg/mL (≈ 12.9 µM)
M. abscessus
  MIC: >7.5 µg/mL
B. cereus 10987
  MIC: 12.5 µg/mL (≈ 35.3 µM)
P. mirabilis
  MIC: 64 µg/mL (≈ 181 µM)

## O=[N+]([O-])c1cn2c(n1)OC[C@@H](OCc1ccc(OC(F)(F)F)cc1)C2 [PA824]
M. tuberculosis H37Rv
  MIC: 0.01 µg/mL (≈ 0.0278 µM)
